Reference: ChEMBL document CHEMBL4507319 (2021)

How the values were obtained:
[1] = target: Activated CDC42 kinase 1 (Homo sapiens) (UniProt Q07912); test: ACK1(h) Eurofins kinase panel; conditions: Compound concentration 1.0 uM
[2] = target: Beta-1 adrenergic receptor (Homo sapiens) (UniProt P08588); conditions: Compound concentration 10.0 uM
[3] = tested on: Receptor-type tyrosine-protein kinase FLT3 (Homo sapiens), P36888 [N841I]; conditions: Compound concentration 1000.0 nM
[4] = target: RAC-gamma serine/threonine-protein kinase (Homo sapiens) (UniProt Q9Y243); conditions: Compound concentration 1000.0 nM
RAC-gamma serine/threonine-protein kinase (Homo sapiens), sequence (Q9Y243 whole entry, canonical isoform): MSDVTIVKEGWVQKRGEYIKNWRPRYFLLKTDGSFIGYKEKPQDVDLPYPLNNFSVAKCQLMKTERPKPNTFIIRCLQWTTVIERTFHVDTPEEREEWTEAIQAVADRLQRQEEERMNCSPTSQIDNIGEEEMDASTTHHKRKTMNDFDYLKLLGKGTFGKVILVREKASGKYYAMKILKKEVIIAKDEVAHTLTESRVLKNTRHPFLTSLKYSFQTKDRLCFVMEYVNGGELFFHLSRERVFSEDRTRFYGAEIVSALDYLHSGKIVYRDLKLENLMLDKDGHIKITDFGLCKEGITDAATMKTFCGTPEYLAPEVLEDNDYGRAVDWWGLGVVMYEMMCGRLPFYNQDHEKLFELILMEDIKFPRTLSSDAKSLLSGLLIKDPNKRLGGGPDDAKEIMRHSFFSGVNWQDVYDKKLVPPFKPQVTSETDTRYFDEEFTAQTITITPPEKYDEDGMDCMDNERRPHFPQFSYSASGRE

[5] = tested on: Phosphatidylinositol 4,5-bisphosphate 3-kinase catalytic subunit alpha isoform (Homo sapiens), P42336 [E545K]; conditions: Compound concentration 1000.0 nM
Phosphatidylinositol 4,5-bisphosphate 3-kinase catalytic subunit alpha isoform (Homo sapiens), P42336 [E545K], sequence (P42336 whole entry E545K, canonical isoform): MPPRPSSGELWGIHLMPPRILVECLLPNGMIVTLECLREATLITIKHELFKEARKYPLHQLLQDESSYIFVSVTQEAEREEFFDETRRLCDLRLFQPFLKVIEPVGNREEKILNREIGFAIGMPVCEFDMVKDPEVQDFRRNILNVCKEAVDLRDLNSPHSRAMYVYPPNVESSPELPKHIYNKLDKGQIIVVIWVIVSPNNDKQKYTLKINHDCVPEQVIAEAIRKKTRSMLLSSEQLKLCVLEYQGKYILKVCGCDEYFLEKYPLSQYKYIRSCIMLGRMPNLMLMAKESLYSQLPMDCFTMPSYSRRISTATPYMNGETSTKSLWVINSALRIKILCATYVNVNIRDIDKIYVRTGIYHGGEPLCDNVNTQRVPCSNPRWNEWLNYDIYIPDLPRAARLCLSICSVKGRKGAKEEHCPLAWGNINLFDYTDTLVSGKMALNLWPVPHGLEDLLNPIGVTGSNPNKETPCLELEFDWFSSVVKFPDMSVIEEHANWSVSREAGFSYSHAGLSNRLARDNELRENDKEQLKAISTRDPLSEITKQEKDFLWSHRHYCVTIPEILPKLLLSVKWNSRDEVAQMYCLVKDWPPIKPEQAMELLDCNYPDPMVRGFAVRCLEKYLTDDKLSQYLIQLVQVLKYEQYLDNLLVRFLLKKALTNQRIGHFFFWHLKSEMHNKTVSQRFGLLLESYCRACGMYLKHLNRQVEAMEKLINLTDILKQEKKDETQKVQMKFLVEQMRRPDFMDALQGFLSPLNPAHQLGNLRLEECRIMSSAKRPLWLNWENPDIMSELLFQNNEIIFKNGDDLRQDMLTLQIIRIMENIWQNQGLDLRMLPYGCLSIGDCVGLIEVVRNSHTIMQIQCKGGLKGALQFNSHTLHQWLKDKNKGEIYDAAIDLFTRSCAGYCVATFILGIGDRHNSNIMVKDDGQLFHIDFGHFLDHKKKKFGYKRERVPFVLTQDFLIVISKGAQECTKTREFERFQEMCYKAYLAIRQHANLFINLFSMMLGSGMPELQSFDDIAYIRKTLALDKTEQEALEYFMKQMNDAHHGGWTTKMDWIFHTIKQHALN

[6] = target: Fibroblast growth factor receptor 2 (Homo sapiens) (UniProt P21802); conditions: Compound concentration 1000.0 nM
Fibroblast growth factor receptor 2 (Homo sapiens), sequence (P21802 22-821 limits assumed): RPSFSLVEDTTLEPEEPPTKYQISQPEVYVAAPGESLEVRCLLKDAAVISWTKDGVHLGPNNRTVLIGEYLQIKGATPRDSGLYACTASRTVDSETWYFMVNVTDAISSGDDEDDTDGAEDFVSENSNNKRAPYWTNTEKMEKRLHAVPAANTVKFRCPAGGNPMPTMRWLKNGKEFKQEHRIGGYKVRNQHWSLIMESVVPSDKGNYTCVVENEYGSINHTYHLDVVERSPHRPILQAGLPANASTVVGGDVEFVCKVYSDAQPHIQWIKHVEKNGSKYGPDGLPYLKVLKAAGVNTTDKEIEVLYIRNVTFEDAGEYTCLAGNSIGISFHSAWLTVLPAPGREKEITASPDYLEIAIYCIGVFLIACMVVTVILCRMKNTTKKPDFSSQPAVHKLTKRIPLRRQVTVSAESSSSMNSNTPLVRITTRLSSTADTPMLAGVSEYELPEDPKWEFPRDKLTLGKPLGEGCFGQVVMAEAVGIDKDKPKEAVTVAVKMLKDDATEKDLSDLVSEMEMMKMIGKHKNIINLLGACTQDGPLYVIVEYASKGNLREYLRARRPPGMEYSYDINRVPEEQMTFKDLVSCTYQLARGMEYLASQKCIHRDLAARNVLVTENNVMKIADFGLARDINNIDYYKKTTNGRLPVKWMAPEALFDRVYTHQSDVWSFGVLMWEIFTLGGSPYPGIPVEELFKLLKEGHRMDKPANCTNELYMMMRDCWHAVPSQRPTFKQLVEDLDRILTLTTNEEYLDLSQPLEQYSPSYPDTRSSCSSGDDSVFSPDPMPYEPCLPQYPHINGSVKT

[7] = target: Interferon-induced, double-stranded RNA-activated protein kinase (Homo sapiens) (UniProt P19525); test: PKR(h) Eurofins kinase panel; conditions: Compound concentration 1.0 uM
[8] = target: T1, NUAK family SNF1-like kinase 2 (Homo sapiens) (UniProt Q9H093); conditions: Compound concentration 1000.0 nM
T1 sequence (whole entry): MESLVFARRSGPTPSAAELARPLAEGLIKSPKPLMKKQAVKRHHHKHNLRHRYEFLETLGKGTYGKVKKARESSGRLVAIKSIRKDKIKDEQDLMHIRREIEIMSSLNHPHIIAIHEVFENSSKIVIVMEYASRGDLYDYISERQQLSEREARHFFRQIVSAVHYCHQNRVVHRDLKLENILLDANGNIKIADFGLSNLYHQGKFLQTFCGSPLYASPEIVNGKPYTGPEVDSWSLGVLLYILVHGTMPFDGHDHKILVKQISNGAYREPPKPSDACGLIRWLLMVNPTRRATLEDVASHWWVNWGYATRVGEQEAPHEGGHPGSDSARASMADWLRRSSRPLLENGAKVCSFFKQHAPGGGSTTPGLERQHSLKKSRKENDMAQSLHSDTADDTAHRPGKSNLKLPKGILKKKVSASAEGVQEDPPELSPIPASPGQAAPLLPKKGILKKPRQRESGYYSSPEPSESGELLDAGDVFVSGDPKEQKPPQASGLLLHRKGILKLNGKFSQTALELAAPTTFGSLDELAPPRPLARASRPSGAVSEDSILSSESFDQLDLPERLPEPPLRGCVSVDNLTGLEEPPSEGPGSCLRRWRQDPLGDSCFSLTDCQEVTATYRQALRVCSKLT

[9] = tested on: MDA-MB-453; test: MDA-MB- 453 cell line Proliferation assay; assay type: functional, Homo sapiens; conditions: time 3 day
[10] = target: PI3K p110 beta/p85 alpha (Homo sapiens) (UniProt P27986+P42338); test: PI3 Kinase(p110b/p85a)(h) Eurofins kinase panel; assay type: protein-complex assay; conditions: Compound concentration 1.0 uM
[11] = target: T2, Dual specificity tyrosine-phosphorylation-regulated kinase 2 (Homo sapiens) (UniProt Q92630); conditions: Compound concentration 1000.0 nM
T2 sequence (whole entry): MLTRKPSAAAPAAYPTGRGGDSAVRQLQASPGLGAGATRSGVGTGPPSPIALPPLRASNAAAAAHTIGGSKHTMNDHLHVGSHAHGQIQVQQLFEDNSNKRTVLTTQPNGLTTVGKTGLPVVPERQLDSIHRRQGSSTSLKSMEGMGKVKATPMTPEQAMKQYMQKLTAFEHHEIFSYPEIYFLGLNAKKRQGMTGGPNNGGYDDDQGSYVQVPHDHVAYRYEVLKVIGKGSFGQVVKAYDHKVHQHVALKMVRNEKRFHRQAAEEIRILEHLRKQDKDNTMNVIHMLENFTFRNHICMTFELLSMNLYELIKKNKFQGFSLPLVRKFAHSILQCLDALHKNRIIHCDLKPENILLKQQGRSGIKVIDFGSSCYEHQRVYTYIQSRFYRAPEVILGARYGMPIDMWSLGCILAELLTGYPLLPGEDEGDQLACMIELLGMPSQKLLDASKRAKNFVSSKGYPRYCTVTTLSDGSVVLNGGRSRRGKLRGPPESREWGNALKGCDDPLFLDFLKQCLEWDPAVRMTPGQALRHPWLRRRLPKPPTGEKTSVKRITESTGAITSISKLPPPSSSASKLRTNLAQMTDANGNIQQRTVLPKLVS

[12] = target: MAP kinase-activated protein kinase 3 (Homo sapiens) (UniProt Q16644); test: MAPKAP-K3(h) Eurofins kinase panel; conditions: Compound concentration 1.0 uM
MAP kinase-activated protein kinase 3 (Homo sapiens), sequence (Q16644 whole entry, looked up): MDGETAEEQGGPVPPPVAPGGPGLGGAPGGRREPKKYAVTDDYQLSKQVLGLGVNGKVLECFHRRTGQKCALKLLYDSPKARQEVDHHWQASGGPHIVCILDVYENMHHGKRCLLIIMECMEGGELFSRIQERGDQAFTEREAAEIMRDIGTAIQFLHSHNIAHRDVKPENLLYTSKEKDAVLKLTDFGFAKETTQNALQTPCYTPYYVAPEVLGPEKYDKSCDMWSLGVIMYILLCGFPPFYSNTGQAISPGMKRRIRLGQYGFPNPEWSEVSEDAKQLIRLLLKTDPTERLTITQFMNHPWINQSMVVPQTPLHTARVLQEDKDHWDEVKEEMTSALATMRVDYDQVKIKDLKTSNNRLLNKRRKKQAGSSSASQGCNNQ

[13] = target: Serine/threonine-protein kinase pim-3 (Homo sapiens) (UniProt Q86V86); test: Pim-3(h) Eurofins kinase panel; conditions: Compound concentration 1.0 uM
[14] = target: T3, Mitogen-activated protein kinase 12 (Homo sapiens) (UniProt P53778); test: SAPK3(h) Eurofins kinase panel; conditions: Compound concentration 1.0 uM
T3 sequence (whole entry): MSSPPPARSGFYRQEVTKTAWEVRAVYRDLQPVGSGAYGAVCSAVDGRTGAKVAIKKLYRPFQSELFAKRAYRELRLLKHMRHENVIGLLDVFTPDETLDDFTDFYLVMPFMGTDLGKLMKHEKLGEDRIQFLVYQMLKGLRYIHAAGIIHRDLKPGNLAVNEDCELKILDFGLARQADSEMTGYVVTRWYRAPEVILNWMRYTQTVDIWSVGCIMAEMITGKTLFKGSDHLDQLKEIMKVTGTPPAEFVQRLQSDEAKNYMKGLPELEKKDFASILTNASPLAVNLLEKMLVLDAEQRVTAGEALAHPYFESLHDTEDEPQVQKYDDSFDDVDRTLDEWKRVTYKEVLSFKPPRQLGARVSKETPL

[15] = target: D(3) dopamine receptor (Homo sapiens) (UniProt P35462); conditions: Compound concentration 10.0 uM
D(3) dopamine receptor (Homo sapiens), sequence (P35462 whole entry): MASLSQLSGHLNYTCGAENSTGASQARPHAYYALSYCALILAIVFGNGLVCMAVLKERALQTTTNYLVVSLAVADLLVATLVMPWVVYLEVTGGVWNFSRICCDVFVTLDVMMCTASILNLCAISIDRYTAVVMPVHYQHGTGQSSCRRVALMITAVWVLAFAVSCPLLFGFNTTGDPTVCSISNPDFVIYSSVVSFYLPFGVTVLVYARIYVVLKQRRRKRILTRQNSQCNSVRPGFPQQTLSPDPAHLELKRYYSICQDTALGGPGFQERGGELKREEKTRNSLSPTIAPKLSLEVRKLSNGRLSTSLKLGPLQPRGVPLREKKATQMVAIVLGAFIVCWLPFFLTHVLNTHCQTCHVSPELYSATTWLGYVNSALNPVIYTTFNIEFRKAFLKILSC

[16] = target: Atypical kinase COQ8B, mitochondrial (Homo sapiens) (UniProt Q96D53); conditions: Compound concentration 1000.0 nM
Atypical kinase COQ8B, mitochondrial (Homo sapiens), sequence (Q96D53 whole entry): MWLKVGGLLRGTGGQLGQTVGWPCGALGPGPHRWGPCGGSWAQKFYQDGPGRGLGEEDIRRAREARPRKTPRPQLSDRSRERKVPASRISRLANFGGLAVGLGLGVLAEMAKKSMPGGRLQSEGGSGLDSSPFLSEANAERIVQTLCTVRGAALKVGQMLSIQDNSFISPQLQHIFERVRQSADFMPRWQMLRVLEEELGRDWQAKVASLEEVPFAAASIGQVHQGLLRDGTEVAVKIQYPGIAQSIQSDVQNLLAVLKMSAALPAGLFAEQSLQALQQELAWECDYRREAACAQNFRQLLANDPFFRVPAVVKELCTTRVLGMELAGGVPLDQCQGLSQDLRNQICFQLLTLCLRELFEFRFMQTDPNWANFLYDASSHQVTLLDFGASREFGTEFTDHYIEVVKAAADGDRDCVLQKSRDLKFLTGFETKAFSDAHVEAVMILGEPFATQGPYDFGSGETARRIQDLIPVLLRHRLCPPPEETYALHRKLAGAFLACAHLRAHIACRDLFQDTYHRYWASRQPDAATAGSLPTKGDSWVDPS

[17] = tested on: Proto-oncogene tyrosine-protein kinase receptor Ret (Homo sapiens), P07949 [V804L]; conditions: Compound concentration 1000.0 nM
[18] = target: Serine/threonine-protein kinase PAK 5 (Homo sapiens) (UniProt Q9P286); conditions: Compound concentration 1000.0 nM
Serine/threonine-protein kinase PAK 5 (Homo sapiens), sequence (Q9P286 whole entry, looked up): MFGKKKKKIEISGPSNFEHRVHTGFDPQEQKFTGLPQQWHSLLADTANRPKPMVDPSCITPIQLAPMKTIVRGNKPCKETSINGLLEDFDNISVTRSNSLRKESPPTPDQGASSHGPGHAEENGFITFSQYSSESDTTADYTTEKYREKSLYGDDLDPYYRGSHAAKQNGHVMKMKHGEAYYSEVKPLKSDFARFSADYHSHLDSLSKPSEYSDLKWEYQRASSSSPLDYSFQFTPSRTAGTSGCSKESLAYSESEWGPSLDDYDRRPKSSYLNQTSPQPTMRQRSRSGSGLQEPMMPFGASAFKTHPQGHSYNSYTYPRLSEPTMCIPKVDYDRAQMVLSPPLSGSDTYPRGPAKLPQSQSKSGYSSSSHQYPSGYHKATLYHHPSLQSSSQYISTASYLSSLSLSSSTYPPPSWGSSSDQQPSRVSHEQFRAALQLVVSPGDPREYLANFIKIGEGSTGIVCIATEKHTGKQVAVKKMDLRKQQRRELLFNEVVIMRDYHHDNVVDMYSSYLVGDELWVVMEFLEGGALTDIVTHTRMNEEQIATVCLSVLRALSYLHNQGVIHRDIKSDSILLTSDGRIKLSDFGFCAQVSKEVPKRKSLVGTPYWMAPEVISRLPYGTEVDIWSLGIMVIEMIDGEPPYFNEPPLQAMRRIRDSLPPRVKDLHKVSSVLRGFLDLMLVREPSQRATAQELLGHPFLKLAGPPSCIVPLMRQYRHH

Beta-1 adrenergic receptor (Homo sapiens), sequence (P08588 whole entry, looked up): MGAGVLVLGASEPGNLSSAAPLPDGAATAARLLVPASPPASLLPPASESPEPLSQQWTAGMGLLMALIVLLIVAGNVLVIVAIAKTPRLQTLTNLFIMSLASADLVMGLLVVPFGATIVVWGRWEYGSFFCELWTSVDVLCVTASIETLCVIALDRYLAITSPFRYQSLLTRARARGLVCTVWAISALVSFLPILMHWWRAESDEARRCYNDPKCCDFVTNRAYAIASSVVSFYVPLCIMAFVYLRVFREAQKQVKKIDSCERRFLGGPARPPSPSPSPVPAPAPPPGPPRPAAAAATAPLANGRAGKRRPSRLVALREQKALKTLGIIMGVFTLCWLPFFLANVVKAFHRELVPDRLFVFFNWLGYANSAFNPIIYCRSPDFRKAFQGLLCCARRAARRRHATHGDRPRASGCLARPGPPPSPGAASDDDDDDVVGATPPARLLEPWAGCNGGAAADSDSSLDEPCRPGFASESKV

CCc1ccccc1C(=O)Nc1n[nH]c2c(C)c(F)c(C3C(C#N)=C(C)N(C)C(C)=C3C#N)cc12 [BAY-3827]
% residual kinase activity [1]: 94% | inhibition [2]: 1.59% | residual activity [3]: 0% | residual activity [4]: 100% | residual activity [5]: 100% | residual activity [6]: 83% | % residual kinase activity [7]: 96% | residual activity [8]: 40% | Cell Proliferation IC50 [9]: 14.6 µM | % residual kinase activity [10]: 99% | residual activity [11]: 82% | % residual kinase activity [12]: 106% | % residual kinase activity [13]: 108% | % residual kinase activity [14]: 106% | inhibition [15]: 10.4% | residual activity [16]: 96% | residual activity [17]: 25% | residual activity [18]: 100%

CC1=C(C#N)C(c2ccc3c(c2)c(NC(=O)c2ccccc2C)nn3C)C(C#N)=C(C)N1 [BAY-974]
inhibition [2]: -7.79% | residual activity [3]: 74% | residual activity [4]: 93% | residual activity [5]: 90% | residual activity [6]: 97% | residual activity [8]: 81% | residual activity [11]: 100% | inhibition [15]: 2.48% | residual activity [16]: 100% | residual activity [17]: 100% | residual activity [18]: 100%
